# From ChEMBL document CHEMBL3044925, “Synthesis of piperazino and morpholino derivatives of aryloxypropane with potential analgesic and possible antimigraine activities” (Med Chem Res, 2011)
# Experiments:
# Mus musculus [1] = test: Neurotoxicity against Mus musculus MFI (mouse) assessed as effect on respiration at 110 mg/kg, ip; format: toxicity, organism-based; parameters: dose 110 mg/kg, route intraperitoneal; conditions: in vivo
# Mus musculus [2] = test: […] activity in Mus musculus MFI (mouse) assessed as inhibition of PBQ-induced writhing at 110 mg/kg, ip administered 1.5 hr prior to PBQ-challenge measured after 10 min relative to aspirin; format: functional; conditions: route intraperitoneal
# Mus musculus [3] = test: Neurotoxicity against Mus musculus MFI (mouse) assessed as hair erection at 110 mg/kg, ip; format: toxicity, organism-based; parameters: dose 110 mg/kg, route intraperitoneal; conditions: in vivo
# Mus musculus [4] = test: Neurotoxicity against Mus musculus MFI (mouse) assessed as tremors at 75 mg/kg, ip; format: toxicity, organism-based; parameters: dose 75 mg/kg, route intraperitoneal; conditions: in vivo
# Mus musculus [5] = test: Neurotoxicity against Mus musculus MFI (mouse) assessed as effect on respiration at 75 mg/kg, ip; format: toxicity, organism-based; parameters: dose 75 mg/kg, route intraperitoneal; conditions: in vivo
# Mus musculus [6] = test: Neurotoxicity against Mus musculus MFI (mouse) assessed as excitation at 110 mg/kg, ip; format: toxicity, organism-based; parameters: dose 110 mg/kg, route intraperitoneal; conditions: in vivo
# Mus musculus [7] = test: Neurotoxicity against Mus musculus MFI (mouse) assessed as eye protrusion at 110 mg/kg, ip; format: toxicity, organism-based; parameters: dose 110 mg/kg, route intraperitoneal; conditions: in vivo
# Mus musculus [8] = test: Neurotoxicity against Mus musculus MFI (mouse) assessed as irritability at 40 mg/kg, ip; format: toxicity, organism-based; parameters: dose 40 mg/kg, route intraperitoneal; conditions: in vivo
# Mus musculus [9] = test: Neurotoxicity against Mus musculus MFI (mouse) assessed as irritability at 75 mg/kg, ip; format: toxicity, organism-based; parameters: dose 75 mg/kg, route intraperitoneal; conditions: in vivo
# Mus musculus [10] = test: Neurotoxicity in ip dosed Mus musculus MFI (mouse); format: toxicity, organism-based; conditions: in vivo
# Mus musculus [11] = test: Neurotoxicity against Mus musculus MFI (mouse) assessed as skeletal muscle incoordination at 110 mg/kg, ip; format: toxicity, organism-based, Muscle tissue; parameters: dose 110 mg/kg, route intraperitoneal; conditions: in vivo
# Mus musculus [12] = test: Neurotoxicity against Mus musculus MFI (mouse) assessed as muscle twitching at 75 mg/kg, ip; format: toxicity, organism-based, Muscle tissue; parameters: dose 75 mg/kg, route intraperitoneal; conditions: in vivo
# Mus musculus [13] = test: Neurotoxicity against Mus musculus MFI (mouse) assessed as skeletal muscle incoordination at 75 mg/kg, ip; format: toxicity, organism-based, Muscle tissue; parameters: dose 75 mg/kg, route intraperitoneal; conditions: in vivo
# Mus musculus [14] = test: Neurotoxicity against Mus musculus MFI (mouse) assessed as tail erection at 40 mg/kg, ip; format: toxicity, organism-based; parameters: dose 40 mg/kg, route intraperitoneal; conditions: in vivo
# Mus musculus [15] = test: Neurotoxicity against Mus musculus MFI (mouse) assessed as muscle twitching at 110 mg/kg, ip; format: toxicity, organism-based, Muscle tissue; parameters: dose 110 mg/kg, route intraperitoneal; conditions: in vivo
# Mus musculus [16] = test: Neurotoxicity against Mus musculus MFI (mouse) assessed as epilepsy at 40 mg/kg, ip; format: toxicity, organism-based; parameters: dose 40 mg/kg, route intraperitoneal; conditions: in vivo
# Mus musculus [17] = test: Neurotoxicity against Mus musculus MFI (mouse) assessed as skeletal muscle incoordination at 40 mg/kg, ip; format: toxicity, organism-based, Muscle tissue; parameters: dose 40 mg/kg, route intraperitoneal; conditions: in vivo
# Mus musculus [18] = test: Neurotoxicity against Mus musculus MFI (mouse) assessed as eye protrusion at 40 mg/kg, ip; format: toxicity, organism-based; parameters: dose 40 mg/kg, route intraperitoneal; conditions: in vivo
# Mus musculus [19] = test: […] activity in Mus musculus MFI (mouse) assessed as inhibition of PBQ-induced writhing at 40 mg/kg, ip administered 1.5 hr prior to PBQ-challenge measured after 10 min relative to aspirin; format: functional; conditions: route intraperitoneal
# Mus musculus [20] = test: Neurotoxicity against Mus musculus MFI (mouse) assessed as epilepsy at 75 mg/kg, ip; format: toxicity, organism-based; parameters: dose 75 mg/kg, route intraperitoneal; conditions: in vivo
# Mus musculus [21] = test: […] activity in Mus musculus MFI (mouse) assessed as inhibition of PBQ-induced writhing at 75 mg/kg, ip administered 1.5 hr prior to PBQ-challenge measured after 10 min relative to aspirin; format: functional; conditions: route intraperitoneal
# Mus musculus [22] = test: Neurotoxicity against Mus musculus MFI (mouse) assessed as effect on respiration at 40 mg/kg, ip; format: toxicity, organism-based; parameters: dose 40 mg/kg, route intraperitoneal; conditions: in vivo
# Mus musculus [23] = test: Neurotoxicity against Mus musculus MFI (mouse) assessed as hair erection at 40 mg/kg, ip; format: toxicity, organism-based; parameters: dose 40 mg/kg, route intraperitoneal; conditions: in vivo
# Mus musculus [24] = test: Neurotoxicity against Mus musculus MFI (mouse) assessed as tail erection at 75 mg/kg, ip; format: toxicity, organism-based; parameters: dose 75 mg/kg, route intraperitoneal; conditions: in vivo
# Mus musculus [25] = test: Neurotoxicity against Mus musculus MFI (mouse) assessed as tremors at 110 mg/kg, ip; format: toxicity, organism-based; parameters: dose 110 mg/kg, route intraperitoneal; conditions: in vivo
# Mus musculus [26] = test: Neurotoxicity against Mus musculus MFI (mouse) assessed as tail erection at 110 mg/kg, ip; format: toxicity, organism-based; parameters: dose 110 mg/kg, route intraperitoneal; conditions: in vivo
# Mus musculus [27] = test: Neurotoxicity against Mus musculus MFI (mouse) assessed as eye protrusion at 75 mg/kg, ip; format: toxicity, organism-based; parameters: dose 75 mg/kg, route intraperitoneal; conditions: in vivo
# Mus musculus [28] = test: Neurotoxicity against Mus musculus MFI (mouse) assessed as excitation at 75 mg/kg, ip; format: toxicity, organism-based; parameters: dose 75 mg/kg, route intraperitoneal; conditions: in vivo
# Mus musculus [29] = test: Neurotoxicity against Mus musculus MFI (mouse) assessed as epilepsy at 110 mg/kg, ip; format: toxicity, organism-based; parameters: dose 110 mg/kg, route intraperitoneal; conditions: in vivo
# Mus musculus [30] = test: Neurotoxicity against Mus musculus MFI (mouse) assessed as irritability at 110 mg/kg, ip; format: toxicity, organism-based; parameters: dose 110 mg/kg, route intraperitoneal; conditions: in vivo
# Mus musculus [31] = test: Neurotoxicity against Mus musculus MFI (mouse) assessed as tremors at 40 mg/kg, ip; format: toxicity, organism-based; parameters: dose 40 mg/kg, route intraperitoneal; conditions: in vivo
# Mus musculus [32] = test: Neurotoxicity against Mus musculus MFI (mouse) assessed as excitation at 40 mg/kg, ip; format: toxicity, organism-based; parameters: dose 40 mg/kg, route intraperitoneal; conditions: in vivo
# Mus musculus [33] = test: Neurotoxicity against Mus musculus MFI (mouse) assessed as hair erection at 75 mg/kg, ip; format: toxicity, organism-based; parameters: dose 75 mg/kg, route intraperitoneal; conditions: in vivo
# Mus musculus [34] = test: Neurotoxicity against Mus musculus MFI (mouse) assessed as muscle twitching at 40 mg/kg, ip; format: toxicity, organism-based, Muscle tissue; parameters: dose 40 mg/kg, route intraperitoneal; conditions: in vivo
# Mus musculus [35] = test: […] activity in ip dosed Mus musculus MFI (mouse) assessed as inhibition of PBQ-induced writhing administered 1.5 hr prior to PBQ-challenge measured after 10 min; format: functional; conditions: read-out: MED
# Mus musculus [36] = test: Neurotoxicity against Mus musculus MFI (mouse) assessed as effect on respiration at 90 mg/kg, ip; format: toxicity, organism-based; parameters: dose 90 mg/kg, route intraperitoneal; conditions: in vivo
# Mus musculus [37] = test: Neurotoxicity against Mus musculus MFI (mouse) assessed as hair erection at 90 mg/kg, ip; format: toxicity, organism-based; parameters: dose 90 mg/kg, route intraperitoneal; conditions: in vivo
# Mus musculus [38] = test: […] activity in Mus musculus MFI (mouse) assessed as inhibition of PBQ-induced writhing at 90 mg/kg, ip administered 1.5 hr prior to PBQ-challenge measured after 10 min relative to aspirin; format: functional; conditions: route intraperitoneal
# Mus musculus [39] = test: Neurotoxicity against Mus musculus MFI (mouse) assessed as muscle twitching at 90 mg/kg, ip; format: toxicity, organism-based, Muscle tissue; parameters: dose 90 mg/kg, route intraperitoneal; conditions: in vivo
# Mus musculus [40] = test: Neurotoxicity against Mus musculus MFI (mouse) assessed as tail erection at 90 mg/kg, ip; format: toxicity, organism-based; parameters: dose 90 mg/kg, route intraperitoneal; conditions: in vivo
# Mus musculus [41] = test: Neurotoxicity against Mus musculus MFI (mouse) assessed as tremors at 90 mg/kg, ip; format: toxicity, organism-based; parameters: dose 90 mg/kg, route intraperitoneal; conditions: in vivo
# Mus musculus [42] = test: Neurotoxicity against Mus musculus MFI (mouse) assessed as irritability at 90 mg/kg, ip; format: toxicity, organism-based; parameters: dose 90 mg/kg, route intraperitoneal; conditions: in vivo
# Mus musculus [43] = test: Neurotoxicity against Mus musculus MFI (mouse) assessed as eye protrusion at 90 mg/kg, ip; format: toxicity, organism-based; parameters: dose 90 mg/kg, route intraperitoneal; conditions: in vivo
# Mus musculus [44] = test: Neurotoxicity against Mus musculus MFI (mouse) assessed as excitation at 90 mg/kg, ip; format: toxicity, organism-based; parameters: dose 90 mg/kg, route intraperitoneal; conditions: in vivo
# Mus musculus [45] = test: Neurotoxicity against Mus musculus MFI (mouse) assessed as epilepsy at 90 mg/kg, ip; format: toxicity, organism-based; parameters: dose 90 mg/kg, route intraperitoneal; conditions: in vivo
# Mus musculus [46] = test: Neurotoxicity against Mus musculus MFI (mouse) assessed as skeletal muscle incoordination at 90 mg/kg, ip; format: toxicity, organism-based, Muscle tissue; parameters: dose 90 mg/kg, route intraperitoneal; conditions: in vivo
smiles,measurement,setting,value
CC(CN1CCN(C)CC1)Oc1c(Br)cccc1Br.O=C(O)C(=O)O (racemic),Activity,Mus musculus [1],Toxic
same,inhibition in vivo at 110 mg/kg,Mus musculus [2],100%
same,Activity,Mus musculus [3],Toxic
same,Activity,Mus musculus [4],Toxic
same,Activity,Mus musculus [5],Toxic
same,Activity,Mus musculus [6],Toxic
same,Activity,Mus musculus [7],Toxic
same,Activity,Mus musculus [8],Toxic
same,Activity,Mus musculus [9],Toxic
same,MTC,Mus musculus [10],75 mg/kg
same,Activity,Mus musculus [11],Toxic
same,Activity,Mus musculus [12],Toxic
same,Activity,Mus musculus [13],Toxic
same,Activity,Mus musculus [14],Toxic
same,Activity,Mus musculus [15],Toxic
same,Activity,Mus musculus [16],Toxic
same,Activity,Mus musculus [17],Toxic
same,Activity,Mus musculus [18],Toxic
same,inhibition in vivo at 40 mg/kg,Mus musculus [19],12.5%
same,Activity,Mus musculus [20],Toxic
same,inhibition in vivo at 75 mg/kg,Mus musculus [21],37.5%
same,Activity,Mus musculus [22],Toxic
same,Activity,Mus musculus [23],Toxic
same,Activity,Mus musculus [24],Toxic
same,Activity,Mus musculus [25],Toxic
same,Activity,Mus musculus [26],Toxic
same,Activity,Mus musculus [27],Toxic
same,Activity,Mus musculus [28],Toxic
same,Activity,Mus musculus [29],Toxic
same,Activity,Mus musculus [30],Toxic
same,Activity,Mus musculus [31],Toxic
same,Activity,Mus musculus [32],Toxic
same,Activity,Mus musculus [33],Toxic
same,Activity,Mus musculus [34],Toxic
same,minimal effective dose,Mus musculus [35],40 mg/kg
CC(CN1CCN(C)CC1)Oc1cccc(Cl)c1Cl.O=C(O)C(=O)O (racemic),Activity,Mus musculus [36],Toxic
same,Activity,Mus musculus [37],Toxic
same,inhibition in vivo at 90 mg/kg,Mus musculus [38],85%
same,Activity,Mus musculus [39],Toxic
same,Activity,Mus musculus [40],Toxic
same,Activity,Mus musculus [41],Toxic
same,Activity,Mus musculus [42],Toxic
same,Activity,Mus musculus [43],Toxic
same,Activity,Mus musculus [44],Toxic
same,Activity,Mus musculus [45],Toxic
same,Activity,Mus musculus [46],Toxic
